Reference: publication PMC3390202 (Biochemistry, 2011)

Biological target: rhodopsin (N2C,D282C and N2C,E113Q,D282C mutants) (Bos taurus, UniProt P02699, N2C/E113Q/D282C)
Assay: UV-visible absorption
Format: binding
Settings: covalent; in the dark; inverse agonist chromophore; DDM, Hepes pH 7.5

Q: With `CC1=C(/C=C/C(C)=C/C=C\C(C)=C\C=O)C(C)(C)CCC1` [11-cis-retinal] as the compound, how does the “UV-visible absorption; 1D4-Sepharose copurification with transducin” value read?
A: Its value is “Binding of 11-cis-retinal forces the protein into the inactive state”.
